Values joined by “and” are separate entries in the source; they are usually repeats but may differ in a detail not shown here. Identical values can stand only once. Toxic doses and inconclusive results are not listed. Non-standard residues stand in square brackets, D forms with d. Residues, ends and D or L forms follow the SMILES beside them. Ac5c = NC1(C(=O)O)CCCC1
System: BDF1 mice, P388 leukemia ip, median survival T/C
Assay: NCI In Vivo Anticancer Drug Screen. Data for tumor model P388 Leukemia (intraperitoneal) in B6D2F1 (BDF1) mice
Details: endpoint: median survival time, higher = longer survival
Summary of the method: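 Each value expresses how treatment altered survival: treated-mouse outcome over vehicle-mouse outcome, both groups bearing the transplanted tumour.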

[1] = dose: 50.0 mg/kg/injection, schedule: Q01DX009 (ip), vehicle: Klucel (hydroxypropylcellulose) (HPC)
[2] = dose: 100.0 mg/kg/injection, schedule: Q04DX003 (ip), vehicle: saline
[3] = dose: 200.0 mg/kg/injection, schedule: Q04DX003 (ip), vehicle: saline
[4] = dose: 400.0 mg/kg/injection, schedule: Q04DX003 (ip), vehicle: saline
[5] = dose: 25.0 mg/kg/injection, schedule: Q01DX009 (ip), vehicle: Klucel (hydroxypropylcellulose) (HPC)
[6] = dose: 100.0 mg/kg/injection, schedule: Q01DX009 (ip), vehicle: Klucel (hydroxypropylcellulose) (HPC)
[7] = dose: 100.0 mg/kg/injection, schedule: Q04DX003 (ip), vehicle: Klucel (hydroxypropylcellulose) (HPC)
[8] = dose: 200.0 mg/kg/injection, schedule: Q04DX003 (ip), vehicle: Klucel (hydroxypropylcellulose) (HPC)
[9] = dose: 400.0 mg/kg/injection, schedule: Q04DX003 (ip), vehicle: Klucel (hydroxypropylcellulose) (HPC)
[10] = dose: 100.0 mg/kg/injection, schedule: Q04DX003 (ip), vehicle: saline with Tween-80
[11] = dose: 200.0 mg/kg/injection, schedule: Q04DX003 (ip), vehicle: saline with Tween-80
[12] = dose: 100.0 mg/kg/injection, schedule: Q01DX009 (ip), vehicle: saline with Tween-80
[13] = dose: 200.0 mg/kg/injection, schedule: Q01DX009 (ip), vehicle: saline with Tween-80
[14] = dose: 50.0 mg/kg/injection, schedule: Q01DX009 (ip), vehicle: saline with Tween-80
[15] = dose: 3.13 mg/kg/injection, schedule: Q01DX009 (ip), vehicle: Klucel (hydroxypropylcellulose) (HPC)
[16] = dose: 6.25 mg/kg/injection, schedule: Q01DX009 (ip), vehicle: Klucel (hydroxypropylcellulose) (HPC)

Structure (SMILES): O=C(Oc1ccccc1)c1cc(O)c(O)c(O)c1
- T/C (dose: 50.0 mg/kg/injection, schedule: Q01DX005 (ip), vehicle: saline with Tween-80): 100 % of control and 106 % of control
- T/C (dose: 100.0 mg/kg/injection, schedule: Q01DX005 (ip), vehicle: saline with Tween-80): 107 % of control and 115 % of control
- T/C (dose: 200.0 mg/kg/injection, schedule: Q01DX005 (ip), vehicle: saline with Tween-80): 105 % of control
- T/C (dose: 400.0 mg/kg/injection, schedule: Q01DX005 (ip), vehicle: saline with Tween-80): 154 % of control

Structure (SMILES): CC([OH2+])CNCCN.CC([OH2+])CNCCN.[Cu+2].[O-][Cl+3]([O-])([O-])[O-] (stereo unspecified)
- T/C (dose: 12.5 mg/kg/injection, schedule: Q01DX009 (ip), vehicle: saline): 108 % of control
- T/C (dose: 25.0 mg/kg/injection, schedule: Q01DX009 (ip), vehicle: saline): 115 % of control
- T/C (dose: 50.0 mg/kg/injection, schedule: Q01DX009 (ip), vehicle: saline): 114 % of control

Structure (SMILES): COC(=O)C12Oc3ccc(-c4ccc5c(c4O)C(O)=C4C(=O)CC(C)C(O)C4(C(=O)OC)O5)c(O)c3C(O)=C1C(=O)CC(C)C2O (stereo unspecified)
- T/C (dose: 0.39 mg/kg/injection, schedule: Q01DX009 (ip), vehicle: saline with Tween-80): 100 % of control
- T/C (dose: 0.78 mg/kg/injection, schedule: Q01DX009 (ip), vehicle: saline with Tween-80): 109 % of control
- T/C (dose: 0.78 mg/kg/injection, schedule: Q01DX009 (ip), vehicle: saline): 100 % of control
- T/C (dose: 1.56 mg/kg/injection, schedule: Q01DX009 (ip), vehicle: saline with Tween-80): 104 % of control and 109 % of control
- T/C (dose: 3.13 mg/kg/injection, schedule: Q01DX009 (ip), vehicle: saline with Tween-80): 104 % of control and 109 % of control
- T/C (dose: 3.13 mg/kg/injection, schedule: Q01DX009 (ip), vehicle: saline): 93 % of control
- T/C (dose: 6.25 mg/kg/injection, schedule: Q01DX009 (ip), vehicle: saline with Tween-80): 101 % of control

Structure (SMILES): CCOC(=O)C1(C(=O)OCC)COC(C)(C)OC1
- T/C [1]: 115 % of control
- T/C [2]: 104 % of control
- T/C (dose: 175.0 mg/kg/injection, schedule: Q04DX003 (ip), vehicle: saline): 118 % of control
- T/C (dose: 200.0 mg/kg/injection, schedule: Q01DX009 (ip), vehicle: Klucel (hydroxypropylcellulose) (HPC)): 105 % of control
- T/C [3]: 100 % of control and 113 % of control
- T/C (dose: 265.0 mg/kg/injection, schedule: Q04DX003 (ip), vehicle: saline): 113 % of control
- T/C (dose: 400.0 mg/kg/injection, schedule: Q01DX009 (ip), vehicle: Klucel (hydroxypropylcellulose) (HPC)): 105 % of control
- T/C [4]: 113 % of control and 122 % of control
- T/C (dose: 600.0 mg/kg/injection, schedule: Q04DX003 (ip), vehicle: saline): 109 % of control

Structure (SMILES): CCCCCCCCCCCCCCCCOc1ccccn1
- T/C [5]: 91 % of control
- T/C [1]: 95 % of control
- T/C [6]: 95 % of control
- T/C [7]: 100 % of control
- T/C [8]: 104 % of control
- T/C [9]: 122 % of control

Structure (SMILES): O=C(O)/C(Br)=C/c1ccccc1
- T/C (dose: 50.0 mg/kg/injection, schedule: Q04DX003 (ip), vehicle: saline with Tween-80): 100 % of control
- T/C [10]: 109 % of control
- T/C [11]: 95 % of control

Structure (SMILES): C=CCCCCCCCCCCCCCCCC (tested in a mixture with another compound)
- T/C (dose: 50.0 mg/kg/injection, schedule: Q01DX009 (ip), vehicle: other): 113 % of control

Structure (SMILES): Nc1c(Br)cc2c(c1Br)Cc1cc(Br)ccc1-2
- T/C [12]: 91 % of control
- T/C [13]: 87 % of control

Structure (SMILES): Cc1cc(N(C)C)c2ccc3cc4ccccc4cc3c2n1
- T/C (dose: 25.0 mg/kg/injection, schedule: Q01DX009 (ip), vehicle: saline with Tween-80): 95 % of control
- T/C [14]: 95 % of control and 114 % of control
- T/C [12]: 92 % of control and 121 % of control

Structure (SMILES): c1ccc(C[P+](c2ccccc2)(c2ccccc2)c2ccccc2)cc1
- T/C [15]: 104 % of control
- T/C (dose: 3.13 mg/kg/injection, schedule: Q04DX003 (ip), vehicle: Klucel (hydroxypropylcellulose) (HPC)): 104 % of control
- T/C [16]: 118 % of control
- T/C (dose: 6.25 mg/kg/injection, schedule: Q04DX003 (ip), vehicle: Klucel (hydroxypropylcellulose) (HPC)): 113 % of control
- T/C (dose: 12.5 mg/kg/injection, schedule: Q04DX003 (ip), vehicle: Klucel (hydroxypropylcellulose) (HPC)): 118 % of control

Structure (SMILES): C=C1C(=O)OC2C3OC(C)(CCC(O)C3COC(C)=O)CC(OC(=O)/C(=C/C)COC(C)=O)C12 (stereo unspecified)
- T/C [15]: 100 % of control
- T/C [16]: 112 % of control
- T/C (dose: 12.5 mg/kg/injection, schedule: Q01DX009 (ip), vehicle: Klucel (hydroxypropylcellulose) (HPC)): 102 % of control
- T/C [5]: 121 % of control

Structure (SMILES): NCC(=O)NC1(C(=O)O)CCCC1 (H-Gly-[Ac5c]-OH)
- T/C (dose: 100.0 mg/kg/injection, schedule: Q01DX009 (ip), vehicle: saline): 113 % of control
- T/C (dose: 200.0 mg/kg/injection, schedule: Q01DX009 (ip), vehicle: saline): 90 % of control

Structure (SMILES): CCc1ccc(OS(=O)(=O)c2ccccc2[N+](=O)[O-])cc1
- T/C (dose: 100.0 mg/kg/injection, schedule: Q04DX003 (ip), vehicle: saline sonified): 100 % of control
- T/C (dose: 200.0 mg/kg/injection, schedule: Q04DX003 (ip), vehicle: saline sonified): 100 % of control
- T/C (dose: 400.0 mg/kg/injection, schedule: Q04DX003 (ip), vehicle: saline sonified): 100 % of control

Structure (SMILES): NNc1nc2c(N)ncnc2n1C1OC(CO)C(O)C1O (stereo unspecified)
- T/C (dose: 50.0 mg/kg/injection, schedule: Q04DX003 (ip), vehicle: saline): 108 % of control
- T/C [2]: 115 % of control
- T/C [3]: 101 % of control
- T/C [4]: 116 % of control

Structure (SMILES): O=C(CC(=O)C(F)(F)F)c1ccc(-c2ccccc2)cc1
- T/C [14]: 110 % of control
- T/C [12]: 122 % of control

Structure (SMILES): CCOP(=O)(OCC)SCSC(C)C
- T/C (dose: 0.19 mg/kg/injection, schedule: Q01DX009 (ip), vehicle: Klucel (hydroxypropylcellulose) (HPC)): 88 % of control
- T/C (dose: 3.12 mg/kg/injection, schedule: Q01DX009 (ip), vehicle: Klucel (hydroxypropylcellulose) (HPC)): 96 % of control

Structure (SMILES): S=P(Oc1ccccc1)(N1CC1)N1CC1
- T/C (dose: 100.0 mg/kg/injection, schedule: Q01DX007 (ip), vehicle: DMSO): 88 % of control
- T/C [7]: 100 % of control
- T/C [8]: 108 % of control
- T/C [9]: 100 % of control

Structure (SMILES): N#CC(=C1C=CC(=NO)C=C1)c1ccc(Cl)cc1
- T/C [5]: 114 % of control
- T/C (dose: 25.0 mg/kg/injection, schedule: Q04DX003 (ip), vehicle: Klucel (hydroxypropylcellulose) (HPC)): 102 % of control
- T/C [1]: 114 % of control
- T/C (dose: 50.0 mg/kg/injection, schedule: Q04DX003 (ip), vehicle: Klucel (hydroxypropylcellulose) (HPC)): 98 % of control
- T/C [6]: 117 % of control
- T/C [7]: 110 % of control
- T/C [8]: 122 % of control
- T/C [9]: 113 % of control

Structure (SMILES): Cc1ccc([N+](=O)[O-])cc1NC(=O)SCCOC(=O)COc1ccc(Cl)cc1
- T/C [10]: 95 % of control
- T/C [11]: 100 % of control
- T/C (dose: 400.0 mg/kg/injection, schedule: Q04DX003 (ip), vehicle: saline with Tween-80): 109 % of control

Structure (SMILES): Nc1nc(=O)n(C2CC(O)C(CO)O2)cc1Br (stereo unspecified)
- T/C [12]: 109 % of control
- T/C [13]: 90 % of control
- T/C (dose: 400.0 mg/kg/injection, schedule: Q01DX009 (ip), vehicle: saline with Tween-80): 100 % of control

Structure (SMILES): CC1(C)CCC23CCC4(C)C(CCC5C6(C)CCC(O)C(C)(C)C6CCC54C)C2C1OC3=O (stereo unspecified)
- T/C (dose: 10.0 mg/kg/injection, schedule: Q01DX009 (ip), vehicle: Klucel (hydroxypropylcellulose) (HPC)): 105 % of control
- T/C (dose: 20.0 mg/kg/injection, schedule: Q01DX009 (ip), vehicle: Klucel (hydroxypropylcellulose) (HPC)): 119 % of control
- T/C (dose: 40.0 mg/kg/injection, schedule: Q01DX009 (ip), vehicle: Klucel (hydroxypropylcellulose) (HPC)): 105 % of control

Structure (SMILES): O=C1C(NC(=O)C2CCCCC2)=C(N2CC2)C(=O)C(NC(=O)C2CCCCC2)=C1N1CC1
- T/C [5]: 123 % of control
- T/C (dose: 50.0 mg/kg/injection, schedule: Q01DX010 (ip), vehicle: saline): 118 % of control
- T/C [6]: 106 % of control
- T/C (dose: 200.0 mg/kg/injection, schedule: Q01DX010 (ip), vehicle: saline): 150 % of control and 209 % of control
- T/C (dose: 400.0 mg/kg/injection, schedule: Q01DX010 (ip), vehicle: saline): 86 % of control

Source: PubChem BioAssay AID328 (DTP/NCI, 2004)
